{"source": "ChEMBL document CHEMBL5678803", "about": "“Selective blockade of TRPA1 channel attenuates pathological pain without altering noxious cold sensation or body temperature regulation” (Pain, 2011)", "key": {"[1]": {"assay": "Aqueous solubility of compound", "assay_type": "physicochemical", "details": "buffer"}, "[2]": {"assay": "Stability of compound in aqueous tetrahydrofuran buffer at pH 7.5 assessed as compound remaining incubated for 16 hrs in presence of glutathione by nuclear magnetic resonance spectroscopy based LC-MS analysis", "assay_type": "physicochemical", "details": "aqueous tetrahydrofuran buffer with glutathione, read-out: Stability"}, "[3]": {"target": "Transient receptor potential cation channel subfamily A member 1 (Homo sapiens, UniProt O75762)", "sequence (O75762 whole entry)": "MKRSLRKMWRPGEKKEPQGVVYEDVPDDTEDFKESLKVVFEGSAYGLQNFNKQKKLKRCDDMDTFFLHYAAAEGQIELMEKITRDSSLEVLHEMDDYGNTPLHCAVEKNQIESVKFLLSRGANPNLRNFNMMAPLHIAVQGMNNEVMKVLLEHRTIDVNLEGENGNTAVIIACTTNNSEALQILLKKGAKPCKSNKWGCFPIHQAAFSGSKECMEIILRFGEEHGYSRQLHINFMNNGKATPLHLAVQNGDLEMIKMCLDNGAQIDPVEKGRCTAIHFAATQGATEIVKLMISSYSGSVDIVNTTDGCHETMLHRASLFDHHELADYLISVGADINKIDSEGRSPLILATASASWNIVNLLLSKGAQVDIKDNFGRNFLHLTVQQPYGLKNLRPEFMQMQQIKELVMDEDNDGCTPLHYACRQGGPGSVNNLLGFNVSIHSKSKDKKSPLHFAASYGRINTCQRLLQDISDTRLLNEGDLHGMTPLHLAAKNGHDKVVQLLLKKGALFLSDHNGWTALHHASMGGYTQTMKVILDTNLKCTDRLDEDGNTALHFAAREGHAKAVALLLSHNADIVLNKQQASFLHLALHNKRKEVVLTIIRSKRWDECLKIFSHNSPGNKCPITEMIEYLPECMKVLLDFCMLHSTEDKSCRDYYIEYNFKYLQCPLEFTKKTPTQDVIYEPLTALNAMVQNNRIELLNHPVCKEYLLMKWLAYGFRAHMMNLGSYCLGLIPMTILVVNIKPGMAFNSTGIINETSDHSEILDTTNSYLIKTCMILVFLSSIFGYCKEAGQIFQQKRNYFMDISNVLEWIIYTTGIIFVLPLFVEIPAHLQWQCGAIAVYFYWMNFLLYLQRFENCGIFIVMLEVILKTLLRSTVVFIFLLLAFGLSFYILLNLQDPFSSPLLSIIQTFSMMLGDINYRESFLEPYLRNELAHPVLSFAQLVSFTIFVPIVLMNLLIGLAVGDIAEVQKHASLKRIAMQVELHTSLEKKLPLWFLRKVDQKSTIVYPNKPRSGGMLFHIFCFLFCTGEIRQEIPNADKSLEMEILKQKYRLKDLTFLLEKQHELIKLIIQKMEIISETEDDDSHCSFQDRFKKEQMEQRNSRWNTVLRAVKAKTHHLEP", "assay": "Antagonist activity at recombinant human TRPA1 expressed in HEK293F cells assessed as reduction in AITC-induced increase in intracellular Ca2+ level by FLIPR-based Ca2+ assay", "assay_type": "cell-based", "details": "filed as antagonist"}, "[4]": {"target": "Transient receptor potential cation channel subfamily A member 1 (Rattus norvegicus, UniProt Q6RI86)", "sequence (Q6RI86 whole entry)": "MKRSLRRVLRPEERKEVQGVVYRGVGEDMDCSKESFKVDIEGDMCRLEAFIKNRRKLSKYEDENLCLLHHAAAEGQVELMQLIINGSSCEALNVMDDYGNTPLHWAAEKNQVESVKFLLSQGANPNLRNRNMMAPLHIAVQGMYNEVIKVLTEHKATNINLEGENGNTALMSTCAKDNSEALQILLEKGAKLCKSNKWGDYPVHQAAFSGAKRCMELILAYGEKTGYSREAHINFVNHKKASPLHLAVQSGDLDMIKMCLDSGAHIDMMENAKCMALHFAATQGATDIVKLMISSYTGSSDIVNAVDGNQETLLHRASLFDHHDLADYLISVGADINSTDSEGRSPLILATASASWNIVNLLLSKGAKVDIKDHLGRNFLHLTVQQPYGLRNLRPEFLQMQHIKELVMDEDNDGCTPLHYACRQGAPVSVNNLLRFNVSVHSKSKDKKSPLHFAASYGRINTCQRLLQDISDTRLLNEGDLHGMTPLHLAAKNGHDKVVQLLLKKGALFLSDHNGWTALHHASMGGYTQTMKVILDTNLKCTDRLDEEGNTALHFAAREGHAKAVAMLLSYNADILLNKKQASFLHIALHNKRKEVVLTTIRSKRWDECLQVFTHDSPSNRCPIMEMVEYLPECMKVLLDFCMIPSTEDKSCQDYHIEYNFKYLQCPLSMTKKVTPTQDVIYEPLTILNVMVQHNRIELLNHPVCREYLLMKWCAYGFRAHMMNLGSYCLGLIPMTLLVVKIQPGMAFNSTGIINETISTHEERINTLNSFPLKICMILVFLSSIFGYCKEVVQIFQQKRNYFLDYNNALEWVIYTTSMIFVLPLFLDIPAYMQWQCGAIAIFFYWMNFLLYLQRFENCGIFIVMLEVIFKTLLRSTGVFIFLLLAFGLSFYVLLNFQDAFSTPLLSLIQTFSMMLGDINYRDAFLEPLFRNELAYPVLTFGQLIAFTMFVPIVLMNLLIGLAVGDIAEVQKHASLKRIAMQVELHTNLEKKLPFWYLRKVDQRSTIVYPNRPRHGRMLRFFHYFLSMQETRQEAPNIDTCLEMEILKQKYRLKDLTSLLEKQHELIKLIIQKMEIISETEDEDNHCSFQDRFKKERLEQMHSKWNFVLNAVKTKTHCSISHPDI", "assay": "Antagonist activity at rat TRPA1 expressed in HEK293F cells assessed as reduction in AITC-induced increase in intracellular Ca2+ level by FLIPR-based Ca2+ assay", "assay_type": "cell-based"}, "[5]": {"target": "Transient receptor potential cation channel subfamily V member 1 (Homo sapiens, UniProt Q8NER1)", "sequence (Q8NER1 whole entry)": "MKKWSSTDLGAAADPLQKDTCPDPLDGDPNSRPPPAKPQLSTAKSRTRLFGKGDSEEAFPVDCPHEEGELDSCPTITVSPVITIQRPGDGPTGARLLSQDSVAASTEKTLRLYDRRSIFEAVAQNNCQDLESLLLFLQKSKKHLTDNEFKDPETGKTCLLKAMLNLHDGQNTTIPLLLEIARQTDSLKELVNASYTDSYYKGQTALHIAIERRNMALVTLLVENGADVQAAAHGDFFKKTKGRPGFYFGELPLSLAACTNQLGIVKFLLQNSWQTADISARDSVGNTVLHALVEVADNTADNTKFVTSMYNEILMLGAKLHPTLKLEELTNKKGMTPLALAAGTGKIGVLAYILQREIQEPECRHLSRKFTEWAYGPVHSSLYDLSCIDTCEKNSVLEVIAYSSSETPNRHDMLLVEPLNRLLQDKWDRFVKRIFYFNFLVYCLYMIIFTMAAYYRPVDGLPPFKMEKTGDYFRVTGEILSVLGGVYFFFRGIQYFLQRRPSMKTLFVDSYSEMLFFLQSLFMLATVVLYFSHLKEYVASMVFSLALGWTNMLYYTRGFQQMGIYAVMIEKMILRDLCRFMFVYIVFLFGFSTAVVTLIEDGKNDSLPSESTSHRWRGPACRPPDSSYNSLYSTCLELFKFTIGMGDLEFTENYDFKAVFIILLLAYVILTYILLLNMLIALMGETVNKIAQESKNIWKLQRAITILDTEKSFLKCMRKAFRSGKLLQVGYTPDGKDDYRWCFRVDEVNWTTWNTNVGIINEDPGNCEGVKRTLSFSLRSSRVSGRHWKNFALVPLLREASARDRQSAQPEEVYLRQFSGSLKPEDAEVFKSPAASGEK", "assay": "Activation of human TRPV1 expressed in HEK293F cells upto 100 micromol/L", "assay_type": "cell-based", "details": "dose <= 100.0 µmol/L"}, "[6]": {"target": "T1, Transient receptor potential cation channel subfamily V member 2 (Rattus norvegicus, UniProt Q9WUD2)", "T1 sequence (Q9WUD2 whole entry)": "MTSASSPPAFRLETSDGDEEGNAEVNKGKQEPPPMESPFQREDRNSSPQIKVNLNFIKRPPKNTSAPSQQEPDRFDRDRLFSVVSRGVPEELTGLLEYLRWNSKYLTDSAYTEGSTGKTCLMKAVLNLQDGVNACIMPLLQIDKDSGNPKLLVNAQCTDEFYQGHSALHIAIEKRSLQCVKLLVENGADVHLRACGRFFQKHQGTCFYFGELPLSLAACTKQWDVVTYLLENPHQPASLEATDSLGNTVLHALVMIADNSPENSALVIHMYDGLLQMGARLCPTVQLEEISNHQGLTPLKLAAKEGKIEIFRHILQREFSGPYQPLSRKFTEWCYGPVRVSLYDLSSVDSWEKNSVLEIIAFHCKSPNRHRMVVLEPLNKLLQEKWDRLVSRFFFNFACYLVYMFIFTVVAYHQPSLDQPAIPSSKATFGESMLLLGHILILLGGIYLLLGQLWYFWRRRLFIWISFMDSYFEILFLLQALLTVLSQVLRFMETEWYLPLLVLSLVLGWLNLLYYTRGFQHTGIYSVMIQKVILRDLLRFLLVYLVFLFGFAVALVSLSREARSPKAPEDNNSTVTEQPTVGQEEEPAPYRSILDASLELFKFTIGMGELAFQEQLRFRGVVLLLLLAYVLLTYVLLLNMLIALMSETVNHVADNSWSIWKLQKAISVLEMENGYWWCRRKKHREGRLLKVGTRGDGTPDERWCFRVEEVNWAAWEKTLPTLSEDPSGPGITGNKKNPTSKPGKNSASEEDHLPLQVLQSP", "assay": "Antagonist activity at rat TRPV2 expressed in HEK293F cells assessed as inhibition of 2APB-induced increase in intracellular Ca2+ level by FLIPR-based Ca2+ assay", "assay_type": "cell-based"}, "[7]": {"target": "Transient receptor potential cation channel subfamily V member 4 (Homo sapiens, UniProt Q9HBA0)", "sequence (Q9HBA0 whole entry)": "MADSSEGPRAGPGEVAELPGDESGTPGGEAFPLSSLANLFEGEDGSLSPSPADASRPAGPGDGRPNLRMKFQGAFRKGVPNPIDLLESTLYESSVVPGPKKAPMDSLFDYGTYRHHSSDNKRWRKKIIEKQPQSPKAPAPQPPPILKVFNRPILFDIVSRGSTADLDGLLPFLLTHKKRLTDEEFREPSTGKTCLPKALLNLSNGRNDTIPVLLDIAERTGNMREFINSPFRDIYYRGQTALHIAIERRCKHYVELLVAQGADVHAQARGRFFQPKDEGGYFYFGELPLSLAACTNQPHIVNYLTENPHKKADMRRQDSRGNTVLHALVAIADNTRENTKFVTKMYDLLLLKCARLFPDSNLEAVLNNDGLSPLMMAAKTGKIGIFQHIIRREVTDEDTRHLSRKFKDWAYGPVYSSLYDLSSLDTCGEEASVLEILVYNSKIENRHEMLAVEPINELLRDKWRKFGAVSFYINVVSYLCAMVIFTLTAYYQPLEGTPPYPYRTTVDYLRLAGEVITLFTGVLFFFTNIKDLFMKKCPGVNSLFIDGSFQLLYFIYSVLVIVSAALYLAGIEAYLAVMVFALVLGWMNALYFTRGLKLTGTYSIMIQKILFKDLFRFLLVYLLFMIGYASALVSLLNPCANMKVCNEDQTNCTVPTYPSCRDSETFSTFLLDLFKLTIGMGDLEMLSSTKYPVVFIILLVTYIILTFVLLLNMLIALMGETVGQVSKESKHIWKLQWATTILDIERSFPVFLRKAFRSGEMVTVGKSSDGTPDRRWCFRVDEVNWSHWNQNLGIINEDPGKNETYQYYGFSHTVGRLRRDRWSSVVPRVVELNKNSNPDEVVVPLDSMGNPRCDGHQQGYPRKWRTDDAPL", "assay": "Antagonist activity at human TRPV4 expressed in HEK293F cells assessed as inhibition of mOsmo-induced increase in intracellular Ca2+ level by FLIPR-based Ca2+ assay", "assay_type": "cell-based"}, "[8]": {"target": "Transient receptor potential cation channel subfamily M member 8 (Homo sapiens, UniProt Q7Z2W7)", "sequence (Q7Z2W7 whole entry)": "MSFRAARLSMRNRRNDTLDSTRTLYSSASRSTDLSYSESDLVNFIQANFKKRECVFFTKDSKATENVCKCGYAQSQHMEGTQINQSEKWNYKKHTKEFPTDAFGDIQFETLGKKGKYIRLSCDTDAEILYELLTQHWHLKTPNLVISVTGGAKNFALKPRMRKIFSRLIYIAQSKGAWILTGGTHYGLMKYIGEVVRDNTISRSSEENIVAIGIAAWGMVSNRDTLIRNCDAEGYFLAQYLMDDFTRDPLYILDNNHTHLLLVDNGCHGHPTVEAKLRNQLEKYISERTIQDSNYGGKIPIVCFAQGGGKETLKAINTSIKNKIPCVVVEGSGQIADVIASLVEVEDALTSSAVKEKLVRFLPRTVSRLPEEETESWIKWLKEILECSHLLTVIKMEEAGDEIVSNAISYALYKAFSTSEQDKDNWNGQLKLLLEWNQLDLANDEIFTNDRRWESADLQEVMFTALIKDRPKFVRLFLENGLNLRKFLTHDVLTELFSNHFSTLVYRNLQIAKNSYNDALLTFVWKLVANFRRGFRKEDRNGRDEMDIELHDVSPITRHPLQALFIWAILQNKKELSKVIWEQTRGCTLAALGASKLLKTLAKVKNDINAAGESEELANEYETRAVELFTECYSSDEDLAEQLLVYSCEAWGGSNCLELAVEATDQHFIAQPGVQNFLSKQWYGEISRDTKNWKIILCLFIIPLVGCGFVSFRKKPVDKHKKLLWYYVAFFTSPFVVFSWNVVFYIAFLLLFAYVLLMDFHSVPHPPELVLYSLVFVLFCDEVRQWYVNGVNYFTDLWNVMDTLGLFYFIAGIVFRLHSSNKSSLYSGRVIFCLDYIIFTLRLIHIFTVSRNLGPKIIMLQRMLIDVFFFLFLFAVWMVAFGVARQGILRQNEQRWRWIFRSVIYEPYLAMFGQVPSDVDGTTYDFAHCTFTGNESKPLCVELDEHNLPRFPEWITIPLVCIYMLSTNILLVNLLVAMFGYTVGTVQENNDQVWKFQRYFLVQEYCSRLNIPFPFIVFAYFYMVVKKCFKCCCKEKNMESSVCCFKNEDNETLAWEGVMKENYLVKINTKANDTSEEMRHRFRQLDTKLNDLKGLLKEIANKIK", "assay": "Antagonist activity at human TRPM8 expressed in HEK293F cells assessed as inhibition of menthol-induced increase in intracellular Ca2+ level by FLIPR-based Ca2+ assay", "assay_type": "cell-based"}, "[9]": {"target": "Transient receptor potential cation channel subfamily A member 1 (Rattus norvegicus) (UniProt Q6RI86)", "sequence (Q6RI86 whole entry)": "as the sequence (Q6RI86 whole entry) above", "assay": "Antagonist activity at endogenous TRPA1 in rat DRG neurons assessed as blockade of AITC-induced Ca2+ signals at 1 micromol/L by […] Ca2+ imaging analysis", "assay_type": "cell-based", "details": "DRG neuron, filed as antagonist, dose 1.0 µmol/L"}, "[10]": {"assay": "Cmax in rat at 2 mg/kg, po", "assay_type": "ADME, organism-based", "details": "in vivo"}, "[11]": {"assay": "Drug concentration in rat at 20.7 mg/kg, po measured after 60 mins", "assay_type": "ADME, organism-based", "details": "in vivo, read-out: Drug uptake"}, "[12]": {"assay": "Toxicity in Sprague-Dawley rat assessed as effect on mean arterial pressure", "details": "in vivo"}, "[13]": {"assay": "Toxicity in CD1 mouse assessed as effect on first jump latency at 0 degreeC at 62.1 mg/kg, po measured after 4 mins by noxious cold plate assay", "assay_type": "organism-based", "details": "in vivo"}, "[14]": {"assay": "Toxicity in CD1 mouse assessed as effect on total forepaw shivering response at 5 degreeC at 62.1 mg/kg, po measured after 4 mins by noxious cold plate assay", "assay_type": "organism-based", "details": "in vivo"}, "[15]": {"assay": "Toxicity in Sprague-Dawley rat assessed as effect on tail withdrawal latency to hot water immersion at 55 degreeC at 62.1 mg/kg, po by tail immersion test", "assay_type": "organism-based", "details": "in vivo"}, "Rattus norvegicus [16]": {"test_system": "Rattus norvegicus", "assay": "Antiallodynic activity in acetone-induced CCI Sprague-Dawley rat model assessed as attenuation of acetone induced cold allodynia at 62.1 mg/kg, po measured after 1 hrs relative to control", "assay_type": "functional"}, "Rattus norvegicus [17]": {"test_system": "Rattus norvegicus", "assay": "Antiallodynic activity in CFA-induced mechanical allodynia Sprague-Dawley rat model assessed as attenuation of mechanical allodynia at 6.2 to 62.1 mg/kg, po administered with compound for 1 hrs and measured 48 hrs after CFA injection", "assay_type": "functional, organism-based", "details": "dose 6.2-62.1 mg/kg, time 49.0 hrs"}}, "note": "The source made the active and inactive calls. The rule behind the calls is not given here.", "data": [{"smiles": "CCC(=N\\O)/C(C)=C/c1ccc(F)cc1", "note": "[A-079]", "values": [{"measurement": "solubility", "setting": "[1]", "result": "> 300", "unit": "µM"}, {"measurement": "remaining at 16 h", "setting": "[2]", "result": "> 95", "unit": "%"}, {"measurement": "Activity", "setting": "[3]", "result": "Dose-Dependent Effect"}, {"measurement": "IC50", "setting": "[4]", "result": 0.289, "unit": "µM"}, {"measurement": "Activity", "setting": "[5]", "result": "inactive"}, {"measurement": "IC50", "setting": "[6]", "result": "> 100", "unit": "µM"}, {"measurement": "IC50", "setting": "[7]", "result": "> 100", "unit": "µM"}, {"measurement": "IC50", "setting": "[8]", "result": "> 100", "unit": "µM"}, {"measurement": "Activity", "setting": "[9]", "result": "Active"}, {"measurement": "Cmax", "setting": "[10]", "result": 0.72, "unit": "µM"}, {"measurement": "concentration at 1 h", "setting": "[11]", "result": 6.22, "unit": "µM"}, {"measurement": "Activity", "setting": "[12]", "result": "Non-Toxic"}, {"measurement": "Activity", "setting": "[13]", "result": "Non-Toxic"}, {"measurement": "Activity", "setting": "[14]", "result": "Non-Toxic"}, {"measurement": "Activity", "setting": "[15]", "result": "Non-Toxic"}, {"measurement": "Activity", "setting": "Rattus norvegicus [16]", "result": 46.4, "unit": "%"}, {"measurement": "Activity", "setting": "Rattus norvegicus [17]", "result": "inactive"}]}]}
